# Experimental data published in the METLIN SMRT retention time set (Domingo-Almenara et al. 2019).
# Assay: gradient 5% acetonitrile 3 min, to 50% in 2 min, to 85% in 15 min, held 3 min, 100 µL/min
# Details: column: Zorbax Extend-C18 2.1 x 50 mm; eluents: water / acetonitrile, 0.1% formic acid
# In short: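 Standards, all pure, were combined into mixtures of ~100 molecules and run at 100 μL/min on a Zorbax Extend-C18 column (2.1 × 50 mm, 1.8 μm) with water and acetonitrile, each containing 0.1% formic acid. A coupled quadrupole time-of-flight mass spectrometer operated in positive and negative ionization mode. Retention time values come from computationally picked adduct peaks, each inspected manually.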
row,Structure (SMILES),RP-LC retention time [s]
1,O=c1ccc(-c2cccc(Cl)c2)nn1CCc1nc(-c2ccccc2)no1,1030
2,CC1(C(=O)NCCc2c[nH]c3ccccc23)CCCCC(=O)N1 (stereo not given),656
3,Cc1oc2ccn(Cc3ccccc3F)c(=O)c2c1C(=O)NCC1CCCO1 (stereo not given),891
4,COC1CCC12CCN(C(=O)CC(C)C)CC2 (stereo not given),810
5,COc1ccccc1-c1nc2n(n1)C1(CCCCC1)[C@@H]1CCCC[C@@H]1N2C(=O)c1ccco1,1200
6,Cc1ccc(-c2noc(CN3C(=O)COc4ccccc43)n2)cc1,1030
7,C=CCc1cc(OC)ccc1OCC(O)CN1CCN(C(=O)OCC)CC1 (stereo not given),592
8,CCN1CCN(c2ncnc3sc(C(=O)NCCCOC)c(C)c23)CC1,563
9,Cc1noc(/C=C\c2ccc(S(=O)(=O)NC3CC3)cc2)c1NC(=O)C1CC1,766
10,Cc1cnc(C2CC2)n1CCNS(=O)(=O)c1cc(F)cc(F)c1,615
11,CC(C)c1cccc(NC(=O)Cn2cnc3nc(N4CCCC(C(=O)NC5CC5)C4)sc3c2=O)c1 (stereo not given),723
12,CCN(CC)CCn1c(NCc2ccc(Br)cc2)nc2ccccc21,581
13,COc1ccc(NC(=O)Nc2cccc(-c3cn4cccnc4n3)c2)cc1,687
14,CCOCC(=O)N1CCCN(C2=NS(=O)(=O)C(c3ccc(CC)cc3)=C2C)CC1,790
15,COc1ccc(-c2c(C)noc2NC(C)=O)cc1S(=O)(=O)N1CCN(c2ccc(F)cc2)CC1,843
16,CC1(C)SC2C(NC(=O)[C@H](NC(=O)N3CCNC3=O)c3ccccc3)C(=O)N2C1C(=O)O (stereo not given in full),709
17,CCCn1cc(CCNC(=O)Nc2ccc(C)c(F)c2)c2cccnc21,807
18,COc1ccc(CSc2nccc3c2ccn3CC(=O)N2CCN(c3ccccn3)CC2)cc1,592
19,CC(=O)c1ccc(NC(=O)CN2C(=O)CC(c3ccccc3)=Nc3cccnc32)cc1,780
20,O=c1c2sccc2n(Cc2nc(-c3ccc(C(F)(F)F)cc3)no2)c(=O)n1CCc1ccccc1,1270
21,COc1ccc(Nc2c(-c3ccc(OC)c(OC)c3)nc3cnccn23)cc1,730
22,Cc1ccccc1Nc1c(-c2ccccc2O)nc2ccccn12,701

row,Structure (SMILES),RP-LC retention time [s]
1,COc1ccc(NC(=O)CSc2cc(N3CCN(c4ccccc4OC)CC3)ncn2)cc1OC,814
2,O=C(Nc1cccnc1)c1cc(-c2ccnc(F)c2)ccc1OCc1ccccc1,884
3,CC(=O)Nc1ccc(CCc2nc3ccc(C(=O)NCCC4=CCCCC4)cc3[nH]2)cc1,669
4,CCN1CCN(c2ccc(NC(=O)c3ccc(C)c(N4CCCC4=O)c3)cn2)C1=O,600
5,COc1ccc(Cl)cc1NC(=O)Cn1cnc2nc3c(cc2c1=O)CCCC3,798
6,Cc1csc(-c2cc(S(=O)(=O)N3CCc4ccccc4C3)c(C)s2)n1,1160
7,COC(=O)c1ccc(OC(=O)N(C)c2ccccc2)cc1,879
8,O=C(COc1cccc2c(=O)[nH]ccc12)c1ccccc1,806
9,CCOC(=O)c1c(C)[nH]c(C)c1S(=O)(=O)N1CCC(C(=O)Nc2cc(Cl)ccc2C)CC1,890
10,CCc1ccc(NC(=O)Cn2c(C(C)C)nc3cc4c(cc32)OCCO4)cc1,742
11,CCc1cc(C(=O)N2CCN(C3CCN(C)CC3)CC2)nc2cc(-c3ccccn3)nn12,562
12,O=C(CN1C(=O)C(C(=O)N2CCCC2)Sc2ccccc21)NCc1ccc(Cl)cc1 (stereo not given),948
13,COC(=O)c1cccc(NS(=O)(=O)c2cc3n(c2)CCCNC3=O)c1,641
14,CCn1cc(C(=O)Nc2cc(Cl)ccc2C)c2cccnc21,922
15,COc1cccc(NC(=O)NCC2CC(=O)N(Cc3ccc(F)cc3)C2)c1OC (stereo not given),695
16,COc1ccccc1CNC(=O)Cn1nc(C)c2sc(-c3ccccc3)nc2c1=O,884
17,CN(C)S(=O)(=O)c1ccc(-c2nnc(C(=O)NCc3ccccc3F)o2)cc1,840
18,Cc1cc(N2CCN(C(=O)c3ccc(Br)o3)CC2)nc(N2CCOCC2)n1,599
19,CCOc1ccc(-c2noc(CN3N=NC4C(=O)N(c5cccc(F)c5)C(=O)C43)n2)cc1OC (stereo not given),926
20,CCOC(=O)c1nc(Nc2ccc(OCC(C)C)cc2)c2ccccc2n1,998
21,CN1C(=O)c2cc(S(=O)(=O)NCc3ccccc3F)ccc2Oc2cccnc21,871
22,Clc1cccc(N2CCN(c3ncnc4[nH]ncc34)CC2)c1,725

row,Structure (SMILES),RP-LC retention time [s]
1,Cc1cc(Cl)ccc1NC(=O)C1CC(=O)N(c2ccc3c(c2)CCN3C(=O)C2CC2)C1 (stereo not given),843
2,CC(C)CNC(=O)CCc1nc2ccccc2n(CC(=O)N2CCCc3ccccc32)c1=O,990
3,CCn1c(=O)sc2cc(S(=O)(=O)N3CCC(C(=O)NC4CC4)CC3)ccc21,737
4,O=C(O)c1nnn(-c2ccc3c(c2)CCC3)c1-c1ccccn1,750
5,COc1cc([C@@H]2c3cc4c(cc3[C@H](O)[C@@H](CO)[C@@H]2C(=O)N2CCN(C)CC2)OCO4)cc(OC)c1OC,600
6,COc1ccc(N2CCN(c3nc(C(=O)NCC4CC4)cs3)CC2)cc1,915
7,O=C(NCc1ccco1)c1csc(N2CCN(c3ccc(F)cc3)CC2)n1,991
8,O=C(CSc1ccc(N2CCCC(C(=O)NC3CC3)C2)nn1)NCCc1ccc(Cl)cc1 (stereo not given),666
9,O=c1ccc(S(=O)(=O)N2CCOCC2)cn1Cc1ccccc1F,723
10,Cn1c(CNC(=O)C2CCc3nc(N4CCCC4)ncc3C2)nc2ccccc21 (stereo not given),529
11,CC(C)Sc1cc2c(cc1NC(=O)Cc1cccc(F)c1)n(C)c(=O)n2C,987
12,CCc1ccc(NC(=O)Cn2nc3cc(C)nc(Nc4ccc(C)c(F)c4)n3c2=O)cc1,1190
13,Cc1cccc(NC(=O)CN2C(=O)CCc3cc(S(=O)(=O)N4CCCCC4C)ccc32)c1C (stereo not given),930
14,COC(=O)c1cc(OCC(=O)NCc2ccc3c(c2)OCO3)c2cc(Cl)ccc2n1,827
15,COc1ccccc1NC(=O)C1CCN(S(=O)(=O)c2c(C)nn(-c3ccccc3)c2C)CC1,981
16,CCOc1ccccc1CNC(=O)C1CCN(C(=O)c2sccc2-n2cccc2)CC1,882
17,COc1cccc(CNC(=O)C2CCCN(c3nnc4ccc(Cl)cn34)C2)c1OC (stereo not given),754
18,CCCCOc1ccc(CNC(=O)C2CCN(C(=O)c3cc4ccsc4[nH]3)CC2)cc1,937
19,O=S(=O)(c1ccccc1Cl)N1CCC(c2noc(COCC3CC3)n2)CC1,950
20,Cc1ncsc1CN1CC(n2cc(C(=O)NCC3CC3)nn2)C1,575
21,CCNC(=O)CN1C(=O)CCn2nc(-c3cn(C)c4ccccc34)cc21,656
